Assay results reported in US8580268B2, “CpG oligonucleotide analogs containing hydrophobic T analogs with enhanced immunostimulatory activity” (Coley Pharmaceutical GmbH, priority 2006, dated 2013).
“Also recorded” adds a separate entry of the source. Strand notation (5' to 3'): a small letter for the sugar, then the base; units joined by * are phosphorothioate-linked, units joined directly phosphodiester-linked; [ ] holds rarer units or linkages, { } end groups; capitals alone tell only the bases. [5IU] = 5-iodo-2'-deoxyuridine; [5mC] = 5-methylcytosine; d = 2'-deoxy (DNA)

Biological target: T1, human TLR9 (Homo sapiens, UniProt Q9NR96)
T1 construct: expressed in transfected cells
T1 sequence (Q9NR96 26-1032): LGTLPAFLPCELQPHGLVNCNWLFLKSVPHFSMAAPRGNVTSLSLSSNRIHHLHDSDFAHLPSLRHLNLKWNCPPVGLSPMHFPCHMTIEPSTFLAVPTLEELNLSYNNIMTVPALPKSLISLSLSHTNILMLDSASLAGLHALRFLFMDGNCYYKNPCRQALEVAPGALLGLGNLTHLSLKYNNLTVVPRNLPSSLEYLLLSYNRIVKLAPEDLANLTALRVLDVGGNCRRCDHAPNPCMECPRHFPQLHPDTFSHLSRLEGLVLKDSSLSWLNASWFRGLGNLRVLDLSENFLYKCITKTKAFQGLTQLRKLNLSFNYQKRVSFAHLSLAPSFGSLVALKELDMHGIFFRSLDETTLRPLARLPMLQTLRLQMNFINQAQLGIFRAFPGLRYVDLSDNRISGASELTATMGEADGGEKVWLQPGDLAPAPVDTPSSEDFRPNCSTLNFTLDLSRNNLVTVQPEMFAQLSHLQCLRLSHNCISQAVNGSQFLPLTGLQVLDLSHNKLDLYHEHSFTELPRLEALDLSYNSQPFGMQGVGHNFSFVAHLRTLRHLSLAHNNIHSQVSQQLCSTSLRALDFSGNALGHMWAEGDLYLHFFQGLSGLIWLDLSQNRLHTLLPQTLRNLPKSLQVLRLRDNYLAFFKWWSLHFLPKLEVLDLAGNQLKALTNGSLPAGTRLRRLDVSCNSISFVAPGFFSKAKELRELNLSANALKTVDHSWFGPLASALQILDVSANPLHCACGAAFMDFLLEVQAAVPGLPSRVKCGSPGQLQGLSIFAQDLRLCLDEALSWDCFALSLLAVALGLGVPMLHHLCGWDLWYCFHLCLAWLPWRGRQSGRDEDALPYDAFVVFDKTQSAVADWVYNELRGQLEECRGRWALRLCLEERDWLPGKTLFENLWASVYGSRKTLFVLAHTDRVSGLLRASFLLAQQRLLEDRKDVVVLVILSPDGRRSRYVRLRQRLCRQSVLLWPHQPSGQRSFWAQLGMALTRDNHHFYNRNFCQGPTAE
Test: TLR9 luciferase assay (NF-κB reporter) in hTLR9-LUC-293 cells
Format: cell-based
Conditions: 16 h, stated in words relative to the comparator ODN
Protocol: HEK293 cells were transfected by electroporation with vectors expressing the respective human TLR and a 6xNF-κB-luciferase reporter plasmid. Stable transfectants (3×10^4 cells/well) were incubated indicated amounts of ODN for 16 h at 37° C. in a humidified incubator. Each data point was done in triplicate. Cells were lysed and assayed for luciferase gene activity (using the BriteLite kit from Perkin-Elmer, Zaventem, Belgium). Stimulation indices were calculated in reference to reporter gene activity of medium without addition of ODN.

| Substance | TLR9 stimulation (NF-κB luciferase activity, relative stimulation index) |
| --- | --- |
| T*G*JU*Z-G*T*T*T*T*T*T*T*T*T*T*T*T*T*T*T (DNA dT*dG*d[5IU]*d[5mC]dG*dT*dT*dT*dT*dT*dT*dT*dT*dT*dT*dT*dT*dT*dT*dT) [SEQ ID NO:140, B-class with 5-methyl-dC (Z)] | more active in the assay than the parent ODN |
| T*G*T*C-G*PU*T*T*T*T*T*T*T*T*T*T*T*T*T*T (DNA TGTCGNTTTTTTTTTTTTTT; 5-propynyl-dU, chemistry not fully specified) [SEQ ID NO:117, B-class with 5-proynyl-dU (PU)] | activity comparable to that of the parent sequence |
| T*G*T*C-G*BVU*T*T*T*T*T*T*T*T*T*T*T*T*T*T (DNA TGTCGNTTTTTTTTTTTTTT; listed as DNA, chemistry not fully specified) [SEQ ID NO:154, B-class with 5-(2-bromo-vinyl)-uridine (BVU)] | more active in the assay than the parent sequence |
| (JU*C*G*T*T*C*G*L*)2doub-3mG (DNA NCGTTCGNNN; JU, 3'3'-branched doubler, chemistry not fully specified) [SEQ ID NO:97] | as active or more active than the unmodified SEQ ID NO:1 |
| T*G*JU*C-I*T*T*T*T*T*T*T*T*T*T*T*T*T*T*T (DNA TGUCNTTTTTTTTTTTTTTT; DNA at 3, [5IU] at 3, linkages s3 o1 s15 (s phosphorothioate, o phosphodiester), other sugars and the base at N not given here; position 5 is inosine) [SEQ ID NO:139, B-class with inosine (I)] | more active in the assay than the parent ODN |
| (T*G*JU*C-G*T*T*L*)2doub-teg (DNA TGNCGTTNNN; JU modification, 3'3'-branched doubler with TEG, chemistry not fully specified) [SEQ ID NO:101] | as active or more active than the unmodified SEQ ID NO:1; also recorded: more active than SEQ ID NO:96 AND 97 |
| T*G*JU*C-E*T*T*T*T*T*T*T*T*T*T*T*T*T*T*T (DNA TGNCNTTTTTTTTTTTTTTT; JU, 7-deaza-dG, chemistry not fully specified) [SEQ ID NO:138, B-class with 7-deaza-dG (E)] | more active in the assay than the parent ODN |
| JU*C-G*JU*C*G*T*T*T*T*A*C*G*G*C*G*C*C*G*T*G*C*C*G (DNA d[5IU]*dCdG*d[5IU]*dC*dG*dT*dT*dT*dT*dA*dC*dG*dG*dC*dG*dC*dC*dG*dT*dG*dC*dC*dG) [SEQ ID NO:44] | increased stimulation of TLR9 above unmodified A and C class |
| T*C*T*T*T*T*T*T*G*U*C-G*T*T*T*T*T*T*T*T*T*T (DNA dT*dC*dT*dT*dT*dT*dT*dT*dG*dU*dCdG*dT*dT*dT*dT*dT*dT*dT*dT*dT*dT) [SEQ ID NO:51, U-modified T class] | reduced stimulation of TLR9 |
| T*G*BVU*C-G*T*T*T*T*T*T*T*T*T*T*T*T*T*T*T (DNA TGNCGTTTTTTTTTTTTTTT; listed as DNA, chemistry not fully specified) [SEQ ID NO:153, B-class with 5-(2-bromo-vinyl)-uridine (BVU)] | more active in the assay than the parent sequence |
| T*G*PU*C-G*T*T*T*T*T*T*T*T*T*T*T*T*T*T*T (DNA TGNCGTTTTTTTTTTTTTTT; 5-propynyl-dU, chemistry not fully specified) [SEQ ID NO:116, B-class with 5-proynyl-dU (PU)] | activity comparable to that of the parent sequence; also recorded: slightly improved over the parent sequence |
| T*C-G-A-C-G-JU-C-G-JU-G-G*G*G*G (DNA dT*dCdGdAdCdGd[5IU]dCdGd[5IU]dGdG*dG*dG*dG) [SEQ ID NO:36, JU-modified A class] | increased stimulation of TLR9 above unmodified A and C class |
